Measured values taken from patent publication US10726554B2, “Information processing apparatus, information processing system, and information processing method” (Sony Corporation, priority 2015, dated 2020).

Legend:
Assay type in all cases: cell-based
U2OS cells [1] = assay: Change in motion speed by motor protein inhibitor (phase contrast imaging, average motion speed); conditions: imaging time 60 minutes
Protocol: Images (moving image) of U2OS cells cultured at different medicine concentrations were captured with a phase contrast microscope. […] For the AMP-PNP, three types of cells respectively having medicine concentrations of 67, 200, and 670 micro M and a comparative cell to which nothing is administered were prepared. For the ATA, three types of cells respectively having medicine concentrations of 10, 30, and 100 micro M and a comparative cell to which nothing is administered were prepared. The magnification power of the microscope was 20×, the imaging interval was 5 frames per second, and the imaging time was 60 minutes. After motion vectors were calculated at intervals of approximately 1 micrometer, an average of the motion amount per unit time (motion speed) was calculated, to create a graph.
FIG. 27 is a graph of a motion speed for the cells to which AMP-PNP is administered at different medicine concentrations. FIG. 28 is a graph of a motion speed for the cells to which ATA is administered at different medicine concentrations.

U2OS cells [2] = assay: Change in motion speed by metabolic inhibition with mitochondrial uncoupler (phase contrast imaging, relative motion area); conditions: U2OS cells, 0.5, 5 and 50 micro M, imaging time 20 minutes, versus comparative cell (FIG. 26)
Protocol: Images (moving image) of U2OS cells cultured at different medicine concentrations were captured with a phase contrast microscope. A medicine was CCCP, which is a mitochondrial uncoupler used as a metabolic inhibitor. Three types of cells respectively having medicine concentrations of 0.5, 5, and 50 micro M and a comparative cell to which nothing is administered were prepared. The magnification power of the microscope was 20×, the imaging interval was 5 frames per second, and the imaging time was 20 minutes. After motion vectors were calculated at intervals of approximately 1 micrometer, a relative motion area was calculated to create a graph.
FIG. 26 is a graph of a relative motion area for the cells cultured at different medicine concentrations.

U2OS cells [3] = assay: Change in motion speed by microtubule disruption (phase contrast imaging, motion vector analysis); conditions: 2 micro M, imaging time 20 minutes; for motion area in color map of motion speed: versus comparative cell (FIGS. 20, 22, 24); for relative motion area (proportion of the motion area to the cell area): versus comparative cell to which nothing is administered (FIG. 25)
Protocol: Images (moving image) of U2OS cells cultured on different conditions were captured with a phase contrast microscope. Three types of cells, i.e., a cell to which Paclitaxel of 2 micro M is administered, a cell to which Nocodazole of 2 micro M is administered, and a comparative cell to which nothing is administered, were prepared. The Paclitaxel stabilizes a microtubule. The Nocodazole destabilizes a microtubule. The magnification power of the microscope was 20×, the imaging interval was 5 frames per second, and the imaging time was 20 minutes. After motion vectors were calculated at intervals of approximately 1 micrometer, a spatiotemporal average of the motion amount per unit time (motion speed) of each coordinate was calculated, to create a color map. Further, on the basis of the proportion of the cell within the captured image, a cell area and a motion area indicating a motion speed larger than a predetermined motion speed were calculated, and a relative motion area indicating a proportion of the motion area to the cell area was specified, to create a graph.
FIG. 19 is a phase-contrast image of a comparative cell to which nothing is administered, and FIG. 20 is a color map of the comparative cell. FIG. 21 is a phase-contrast image of a cell to which Paclitaxel is administered, and FIG. 22 is a color map of the cell. FIG. 23 is a phase-contrast image of a cell to which Nocodazole is administered, and FIG. 24 is a color map of the cell. FIG. 25 is a graph of a relative motion area for the cells cultured on those three conditions.

SMILES	motion area in color map of motion speed (U2OS cells [3])	relative motion area (proportion of the motion area to the cell area) (U2OS cells [3])	also measured
Nc1ncnc2c1ncn2[C@@H]1O[C@H](COP(=O)(O)OP(=O)(O)NP(=O)(O)O)[C@@H](O)[C@H]1O [AMP-PNP]			motion speed (average of the motion amount per unit time) (U2OS cells [1]; U2OS cells, 67, 200 and 670 micro M, versus comparative cell (FIG. 27)): the value of the motion speed decreases in accordance with an increase of the medicine concentration
O=C(O)C1=CC(=C(c2ccc(O)c(C(=O)O)c2)c2ccc(O)c(C(=O)O)c2)C=CC1=O [ATA]			motion speed (average of the motion amount per unit time) (U2OS cells [1]; U2OS cells, 10, 30 and 100 micro M, versus comparative cell (FIG. 28)): the value of the motion speed decreases in accordance with an increase of the medicine concentration
N#CC(C#N)=NNc1cccc(Cl)c1 [CCCP]			relative motion area (U2OS cells [2]): the value of the relative motion area decreases in accordance with an increase of the concentration of CCCP
COC(=O)Nc1nc2ccc(C(=O)c3cccs3)cc2[nH]1 [Nocodazole]	the motion area obviously shrinks in the color map	the value of the relative motion area decreases	
CC(=O)O[C@H]1C(=O)[C@@]2(C)[C@H]([C@H](OC(=O)c3ccccc3)[C@]3(O)C[C@H](OC(=O)[C@H](O)[C@@H](NC(=O)c4ccccc4)c4ccccc4)C(C)=C1C3(C)C)[C@]1(OC(C)=O)CO[C@@H]1C[C@@H]2O [Paclitaxel]	do not have difference in color map	do not have difference in color map and in value of the relative motion area	
